Source: paper PMC6199744, “Development of Chemical Proteomics for the Folateome and Analysis of the Kinetoplastid Folateome” (ACS Infectious Diseases, 2018)
Like-named read-outs stand apart in the source and are kept apart here.

What was measured:
Format in all cases: binding
[1] = target: T1, HeLa cell extract proteins (Homo sapiens, UniProt P35637)
T1 construct: endogenous in cells; host or cells: HeLa cell extract
T1 sequence (P35637 1-526): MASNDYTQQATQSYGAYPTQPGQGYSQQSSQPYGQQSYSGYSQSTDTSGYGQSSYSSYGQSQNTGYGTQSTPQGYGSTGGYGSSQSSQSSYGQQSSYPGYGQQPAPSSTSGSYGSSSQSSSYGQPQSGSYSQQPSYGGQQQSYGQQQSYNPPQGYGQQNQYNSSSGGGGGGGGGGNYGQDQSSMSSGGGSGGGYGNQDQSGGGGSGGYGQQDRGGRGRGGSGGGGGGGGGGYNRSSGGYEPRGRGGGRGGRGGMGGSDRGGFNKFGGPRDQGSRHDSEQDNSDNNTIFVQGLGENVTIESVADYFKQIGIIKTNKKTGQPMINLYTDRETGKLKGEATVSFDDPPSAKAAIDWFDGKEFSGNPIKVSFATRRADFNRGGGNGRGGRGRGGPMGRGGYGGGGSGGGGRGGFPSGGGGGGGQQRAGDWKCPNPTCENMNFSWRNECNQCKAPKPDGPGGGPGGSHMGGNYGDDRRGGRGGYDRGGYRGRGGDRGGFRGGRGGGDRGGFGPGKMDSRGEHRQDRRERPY

[2] = target: T2, HeLa cell extract proteins (Homo sapiens, UniProt Q86VP6)
T2 construct: endogenous in cells; host or cells: HeLa cell extract
T2 sequence (Q86VP6 1-1230): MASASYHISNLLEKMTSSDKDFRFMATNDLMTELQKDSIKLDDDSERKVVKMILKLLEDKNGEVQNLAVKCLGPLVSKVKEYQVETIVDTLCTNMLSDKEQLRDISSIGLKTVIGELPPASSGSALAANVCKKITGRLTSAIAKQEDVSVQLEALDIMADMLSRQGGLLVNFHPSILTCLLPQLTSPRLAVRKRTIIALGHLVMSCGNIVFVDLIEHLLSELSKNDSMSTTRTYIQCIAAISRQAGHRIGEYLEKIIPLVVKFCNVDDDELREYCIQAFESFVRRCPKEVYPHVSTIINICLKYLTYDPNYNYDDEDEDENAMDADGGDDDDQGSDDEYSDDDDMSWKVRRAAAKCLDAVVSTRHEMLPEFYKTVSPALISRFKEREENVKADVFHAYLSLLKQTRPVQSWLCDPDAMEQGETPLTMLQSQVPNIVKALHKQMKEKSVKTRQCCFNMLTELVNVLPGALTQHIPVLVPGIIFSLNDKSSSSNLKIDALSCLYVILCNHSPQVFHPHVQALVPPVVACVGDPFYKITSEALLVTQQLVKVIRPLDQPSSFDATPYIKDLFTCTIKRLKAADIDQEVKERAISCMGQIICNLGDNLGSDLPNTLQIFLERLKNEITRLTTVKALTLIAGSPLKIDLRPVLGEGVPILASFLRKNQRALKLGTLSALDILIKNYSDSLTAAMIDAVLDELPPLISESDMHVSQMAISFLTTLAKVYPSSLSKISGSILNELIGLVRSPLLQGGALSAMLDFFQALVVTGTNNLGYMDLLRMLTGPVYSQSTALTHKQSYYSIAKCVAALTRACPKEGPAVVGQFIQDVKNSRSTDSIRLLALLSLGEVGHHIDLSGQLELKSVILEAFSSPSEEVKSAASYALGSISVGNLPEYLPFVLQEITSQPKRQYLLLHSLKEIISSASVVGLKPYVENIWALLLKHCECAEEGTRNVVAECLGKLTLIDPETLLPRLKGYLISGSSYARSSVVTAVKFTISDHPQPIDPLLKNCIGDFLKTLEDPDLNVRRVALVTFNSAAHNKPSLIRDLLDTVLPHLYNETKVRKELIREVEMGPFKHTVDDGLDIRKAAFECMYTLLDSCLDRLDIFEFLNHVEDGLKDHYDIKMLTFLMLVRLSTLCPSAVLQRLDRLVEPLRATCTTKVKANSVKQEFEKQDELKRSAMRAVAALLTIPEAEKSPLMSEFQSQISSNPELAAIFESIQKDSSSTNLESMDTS

[3] = target: T3, HeLa cell extract proteins (Homo sapiens, UniProt Q9UBV8)
T3 construct: endogenous in cells; host or cells: HeLa cell extract
T3 sequence (Q9UBV8 1-284): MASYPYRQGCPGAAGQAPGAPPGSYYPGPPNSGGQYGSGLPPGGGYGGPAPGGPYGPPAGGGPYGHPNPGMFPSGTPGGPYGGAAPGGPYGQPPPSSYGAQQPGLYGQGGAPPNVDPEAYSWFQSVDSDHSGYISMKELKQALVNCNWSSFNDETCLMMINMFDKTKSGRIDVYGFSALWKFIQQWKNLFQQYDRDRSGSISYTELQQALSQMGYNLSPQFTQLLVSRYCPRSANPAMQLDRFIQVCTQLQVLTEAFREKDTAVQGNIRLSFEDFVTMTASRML

[4] = target: T4, HeLa cell extract proteins (Homo sapiens, UniProt Q9BUJ2)
T4 construct: endogenous in cells; host or cells: HeLa cell extract
T4 sequence (Q9BUJ2 1-856): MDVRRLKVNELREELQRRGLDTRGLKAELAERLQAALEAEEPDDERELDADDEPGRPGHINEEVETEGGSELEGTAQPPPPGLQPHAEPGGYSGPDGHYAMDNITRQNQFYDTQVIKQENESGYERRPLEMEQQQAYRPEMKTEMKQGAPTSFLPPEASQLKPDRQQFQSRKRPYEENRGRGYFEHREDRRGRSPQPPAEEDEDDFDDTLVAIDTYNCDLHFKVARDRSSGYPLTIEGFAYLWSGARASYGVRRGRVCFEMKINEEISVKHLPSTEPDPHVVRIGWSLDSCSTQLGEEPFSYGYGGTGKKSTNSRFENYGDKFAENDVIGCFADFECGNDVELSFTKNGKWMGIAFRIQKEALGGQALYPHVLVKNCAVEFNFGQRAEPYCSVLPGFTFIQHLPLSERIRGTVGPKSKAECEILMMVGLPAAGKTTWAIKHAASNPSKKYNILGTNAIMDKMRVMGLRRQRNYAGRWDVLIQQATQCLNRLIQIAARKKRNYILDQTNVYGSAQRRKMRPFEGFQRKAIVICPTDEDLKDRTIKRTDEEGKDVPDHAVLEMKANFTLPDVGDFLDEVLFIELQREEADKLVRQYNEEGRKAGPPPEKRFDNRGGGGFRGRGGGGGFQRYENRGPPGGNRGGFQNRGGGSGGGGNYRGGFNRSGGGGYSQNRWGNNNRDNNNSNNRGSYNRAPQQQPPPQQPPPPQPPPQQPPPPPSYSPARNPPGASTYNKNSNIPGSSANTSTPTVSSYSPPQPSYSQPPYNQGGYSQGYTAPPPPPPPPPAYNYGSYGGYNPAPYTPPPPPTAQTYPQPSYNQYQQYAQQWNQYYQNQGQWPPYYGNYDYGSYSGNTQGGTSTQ

[5] = HeLa, protein FUS (FUS-LIKE PROTEIN (FRAGMENT))
[6] = HeLa, captured protein HNRNPUL1

SMILES | fold changes relative to vehicle control [1, 5] | fold changes relative to vehicle control ([2]; protein CAND1, HeLa) | fold changes relative to vehicle control ([3]; HeLa, captured protein PEF1) | fold changes relative to vehicle control [4, 6] | fold changes relative to vehicle control [1] | fold changes relative to vehicle control [2] | fold changes relative to vehicle control [3] | fold changes relative to vehicle control [4] | fold changes relative to vehicle control ([1]; protein FUS, HeLa) | fold changes relative to vehicle control ([3]; HeLa, protein PEF1) | fold changes relative to vehicle control ([4]; protein HNRNPUL1, HeLa)
Nc1nc2c(c(=O)[nH]1)N(C=O)C(CNc1ccc(C(=O)N[C@@H](CCC(=O)O)C(=O)O)cc1)CN2 (stereo partly shown) [LEU, leucovorin] | 1.06 | 0.99 | 0.95 | 0.99 |  |  |  |  |  |  | 
Nc1nc2[nH]cc(CCc3ccc(C(=O)N[C@@H](CCC(=O)O)C(=O)O)cc3)c2c(=O)[nH]1 [PTX, pemetrexed] |  |  |  |  | 1.03 | 0.96 | 0.99 | 1.04 |  |  | 
CCCCCCOc1ccc(Cc2cnc(N)nc2N)cc1 [compound 1] |  | 1.15 |  |  |  |  |  |  | 1.05 | 0.88 | 0.83
CCCCCCOc1cccc(Cc2cnc(N)nc2N)c1 [compound 2] |  | 1.95 |  |  |  |  |  |  | 1.21 | 0.76 | 0.86
Nc1nc2cccc(-c3ccccc3)c2n1Cc1ccc(Cl)c(Cl)c1 [compound 3] |  | 0.86 |  |  |  |  |  |  | 1.02 | 1.06 | 0.89
NCCOCCOCC(=O)Nc1nc2ncc(CNc3ccc(C(=O)NC(CCC(=O)O)C(=O)O)cc3)nc2c(=O)[nH]1 (stereo not shown) [compound 6] | 1.09 | 1.11 | 0.87 | 1.05 |  |  |  |  |  |  | 
NCCCNc1ccc(C(=O)NC(CCC(=O)O)C(=O)O)cc1 (stereo not shown) [compound 7] | 1.25 | 0.77 | 0.99 | 1.07 |  |  |  |  |  |  | 
